Assay results: US20240279232A1, “USE OF SUBSTITUTED 5-(4-METHYL-6-PHENYL-4H-BENZO[F]IMIDAZO[1,5-A][1,4] DIAZEPIN-3-YL)-1,2,4-O[…] THE TREATMENT OF INFLAMMATORY CONDITIONS” (priority 2021, published 2024)

Experiments:
[1] = system: iNOS mRNA; assay: iNOS RT-qPCR in activated microglia; assay type: cell-based, mouse; details: 10 μM
Protocol: Mouse microglia were activated with IFNγ/LPS and treated with vehicle or 10 μM GL-IV-03. mRNA was isolated after 15 min, 1 h, 3 h and 6 h and iNOS was quantified using RT-qPCR. Cycle numbers for each sample were normalized to GAPDH using the ΔCt method (n=3). Mouse microglia were activated with IFNγ/LPS and treated with vehicle or 10 μM GL-IV-03 for 24 h. Cellular protein was extracted and analyzed with the mouse iNOS ELISA kit from Abcam (n=3). *, (p<0.05), ** (p<0.01) or *** (p<0.001) significance was calculate with ANOVA.
iNOS RT-qPCR. 1×10^6 mouse microglia cells were plated in 6 well plates (VWR, 10062-892) in 1-2 mL of media, activated with 50 ng/ml LPS (Invivogen, NC9836) and 150 U/mL IFNγ (R&D Systems, 485MI100), and treated with compounds of interest. […] Plates were incubated for stated times at 37° C. and 5% CO2. mRNA was collected using QIAshredder (Qiagen, 79654) and RNeasy Mini Kit (Qiagen, 74104). mRNA was analyzed using the QuantiFast SYBR Green RT-PCR kit (Qiagen, 204154) along with iNOS primers (F. 5′-ACATCAGGTCGGCCATCACT-3′, R: 5′-CGTACCGGATGAGCTGTGAAT-3′). Expected product size was 87 bp. Data were acquired using an Eppendorf Mastercycler Pro and analyzed by the Delta Ct method. Each measurement was carried out in triplicate and significance analyzed by ANOVA. […]

[2] = biological target: HERG (Homo sapiens, UniProt Q12809); assay: PDSP primary HERG binding; details: PDSP primary screening
Protocol: (§1) Because reduction of NO could not be reversed by GABAAR antagonists, the possible binding of MP-IV-010 to other cellular receptors was evaluated in collaboration with the NIMH Psychoactive Drug Screening Program.
(§2) Psychoactive Drug Screening Program. Detailed protocols for the primary and secondary radioligand binding assays can be found in the National Institute of Mental Health's Psychoactive Drug Screening Program (NIMH PDSP) Assay Protocol Book. Briefly, primary and secondary radioligand binding assays are carried out in a final of volume of 125 μL per well in appropriate binding buffer. The radioactive ligand concentration is close to the Kd. Total binding and nonspecific binding are determined in the absence and presence of 10 μM of appropriate reference compound, respectively. In brief, plates are usually incubated at room temperature and in the dark for 90 min. Reactions are stopped by vacuum filtration onto 0.3% polyethyleneimine (PEI) soaked 96-well filter mats using a 96-well Filtermate harvester, followed by three washes with cold PBS buffer. Scintillation cocktail is then melted onto the microwave-dried filters on a hot plate and radioactivity counted in a Microbeta counter. The data (n=6) were analyzed by nonlinear regression.

[3] = biological target: T1, iNOS (Mus musculus, UniProt P29477); assay: iNOS activity of extracts of activated microglia incubated with compound; assay type: biochemical; details: 50 μM, extracts incubated 2 h
T1 construct: endogenous in cells
Protocol: Cellular proteins were isolated from mouse microglia and mouse microglia activated for 24 hours with IFNγ/LPS. Cellular proteins from activated microglia were treated for 2 hours with 50 μM MP-IV-010 and iNOS activity was determined for all protein extracts with an Abcam INOS Activity Assay kit (n=3).
Next, the possible involvement of INOS in MP-IV-010 (and structurally similar compound GL-IV-03) mediated reduction of NO in activated microglia was investigated. INOS activity was measured in activated microglia after a 24-hour treatment with MP-IV-010. Second, proteins were harvested from microglia activated for 24 hours with LPS/INFγ, followed by a 2-hour treatment with MP-IV-010 before measuring iNOS activity. Finally, mRNA and protein levels were quantified for GL-IV-03 treated activated microglia to examine the transcriptional regulation of iNOS.
iNOS activity assay. Mouse microglia were activated with 50 ng/mL LPS (Invivogen, NC9836) and 150 U/mL IFNγ (R&D Systems, 485MI100), and treated with compounds of interest in 6 well plates for 2 or 24 hours. […] Protein was collected, quantified, and analyzed with the Nitric Oxide Synthase Activity kit (Abcam, ab211083) with minor alterations to the established protocol. […] Absorbance at 540 nm was measured using a TECAN Infinite M1000 plate reader. Significance (n=3) was analyzed by ANOVA.

[4] = biological target: 5-HT1B (Homo sapiens, UniProt P28222); assay: PDSP primary binding 5-HT1B; details: PDSP primary screening
Protocol: as §1, §2

[5] = biological target: H3 (Homo sapiens, UniProt Q9Y5N1); assay: PDSP primary binding H3; details: PDSP primary screening
Protocol: as §1, §2

[6] = biological target: PBR (Rattus norvegicus, UniProt P16257); assay: PDSP primary binding PBR; details: PDSP primary screening
Protocol: as §1, §2

[7] = biological target: H2 (Homo sapiens, UniProt P25021); assay: PDSP primary binding H2; details: PDSP primary screening
Protocol: as §1, §2

[8] = biological target: NET (Homo sapiens, UniProt P23975); assay: PDSP primary binding NET; details: PDSP primary screening
Protocol: as §1, §2

[9] = biological target: 5-HT1A (Homo sapiens, UniProt P08908); assay: PDSP primary binding 5-HT1A; details: PDSP primary screening
Protocol: as §1, §2

[10] = biological target: D5 (Homo sapiens, UniProt P21918); assay: PDSP primary binding D5; details: PDSP primary screening
Protocol: as §1, §2

[11] = biological target: Beta1 (Homo sapiens, UniProt P08588); assay: PDSP primary binding Beta1; details: PDSP primary screening
Protocol: as §1, §2

[12] = biological target: 5-HT1E (Homo sapiens, UniProt P28566); assay: PDSP primary binding 5-HT1E; details: PDSP primary screening
Protocol: as §1, §2

[13] = biological target: H4 (Homo sapiens, UniProt Q9H3N8); assay: PDSP primary binding H4; details: PDSP primary screening
Protocol: as §1, §2

[14] = biological target: Alpha1B (Homo sapiens, UniProt P35368); assay: PDSP primary binding Alpha1B; details: PDSP primary screening
Protocol: as §1, §2

[15] = biological target: Beta2 (Homo sapiens, UniProt P07550); assay: PDSP primary binding Beta2; details: PDSP primary screening
Protocol: as §1, §2

[16] = biological target: Alpha2B (Homo sapiens, UniProt P18089); assay: PDSP primary binding Alpha2B; details: PDSP primary screening
Protocol: as §1, §2

[17] = system: GABAA; assay: PDSP primary binding GABAA; details: PDSP primary screening
Protocol: as §1, §2

Row | SMILES | iNOS mRNA levels ([1]; 15, 60, and 180 minutes) | iNOS mRNA levels ([1]; after 6 h) | Percent Competition HERG binding [2] | iNOS activity of cellular extracts (direct inhibition) [3] | Percent Competition 5-HT1B [4] | Percent Competition H3 [5] | Percent Competition PBR [6] | Percent Competition H2 [7] | Percent Competition NET [8] | Percent Competition 5-HT1A [9] | Percent Competition D5 [10] | Percent Competition Beta1 [11] | Percent Competition 5-HT1E [12] | Percent Competition H4 [13] | Percent Competition Alpha1B [14] | Percent Competition Beta2 [15] | Percent Competition Alpha2B [16] | Percent Competition GABAA [17]
1 | CCc1noc(-c2ncn3c2[C@@H](C)N=C(c2ccccc2F)c2cc(C4CC4)ccc2-3)n1 [GL-IV-03, (R)-5-(8-Cyclopropyl-6-(2-fluorophenyl)-4-methyl-4H-benzo[f]imidazo[1,5-a][1,4]diazepin-3-yl)-3-ethyl-1,2,4-oxadiazole] | reduced | increased |  |  |  |  |  |  |  |  |  |  |  |  |  |  |  | 
2 | C#Cc1ccc2c(c1)C(c1ccccc1F)=N[C@H](C)c1c(-c3nc(C(C)C)no3)ncn1-2 [MP-IV-010, (R)-5-(8-ethynyl-6-(2-fluorophenyl)-4-methyl-4H-benzo[f]imidazo[1,5-a][1,4]diazepin-3-yl)-3-isopropyl-1,2,4-oxadiazole] |  |  | 29% | did not differ from the vehicle treated cell extract | 29% | −18% | 28% | 28% | −2% | 19% | 29% | 6% | −7% | 6% | 15% | 20% | 29% | −8%
